Assay results from patent US20090318403A1, “ANTIBIOTIC COMPOSITION” (Prosensa Technologies B.V., priority 2006, published 2009).
Read-outs that look alike come from different tables or passages of the source.

Tests used:
Type in all cases: cell-based
[1] = tested on: P. aeruginosa clinical isolate PA7253; assay: Growth inhibition (MIC) of clinical P. aeruginosa isolate PA7253; details: Pseudomonas aeruginosa, isolate PA7253, 10^4 bacteria in 20% LB, 20 h
[2] = tested on: multidrug-resistant Acinetobacter baumannii LUH5771; assay: Growth inhibition of multidrug-resistant A. baumannii LUH5771; details: for Susceptibility of the isolate to treatment: multi-resistant A. baumannii clinical isolate
[3] = tested on: P. aeruginosa clinical isolate PA7243; assay: Growth inhibition (MIC) of clinical P. aeruginosa isolate PA7243; details: Pseudomonas aeruginosa, isolate PA7243, 10^4 bacteria in 20% LB, 20 h
[4] = tested on: P. aeruginosa clinical isolate PA7247; assay: Growth inhibition (MIC) of clinical P. aeruginosa isolate PA7247; details: Pseudomonas aeruginosa, isolate PA7247, 10^4 bacteria in 20% LB, 20 h
[5] = tested on: P. aeruginosa clinical isolate PA7252; assay: Growth inhibition (MIC) of clinical P. aeruginosa isolate PA7252; details: Pseudomonas aeruginosa, isolate PA7252, 10^4 bacteria in 20% LB, 20 h
[6] = tested on: Pseudomonas aeruginosa PA01; assay: Growth inhibition (MIC, OD550 after 20 h) of P. aeruginosa PA01; details: for MIC of antibiotic alone: antibiotic alone (Table 1); for MIC of antibiotic: PA01, inoculum 10^4 bacteria in 20% LB, after 20 h, antibiotic alone (Table 3); for MIC: Pseudomonas aeruginosa
[7] = tested on: P. aeruginosa clinical isolate PA7249; assay: Growth inhibition (MIC) of clinical P. aeruginosa isolate PA7249; details: Pseudomonas aeruginosa, isolate PA7249, 10^4 bacteria in 20% LB, 20 h
[8] = Sensitizer effect of short lipoamines (our studies)
Description: R1 in formula I represents a linear or branched alkyl group comprising at least 7 atoms in a straight chain. In this context alkyl group means that it is a group containing carbon atoms. For instance, for the lipoamines butylamine, pentylamine and hexylamine as disclosed in JP 57155954 no effect was found in our studies. It is understood that if not specified otherwise, C, O, N and S atoms in the alkyl group further comprise hydrogen atoms to properly satisfy the valency of the respective atom. At least 7 atoms in a straight chain is with respect to the longest group of atoms, not including hydrogen, directly connected to one another by covalent bonds starting from the nitrogen (N) in formula I. Such a group of at least 7 atoms in a straight chain thus can be part of cyclic elements, including aromatic rings, in R1, or in other words, one or more (saturated and/or unsaturated) rings can form (part of) the alkyl group comprising at least 7 atoms in a straight chain. The alkyl group may comprise one or more O, N and/or S atoms, which means that the chain of carbon atoms may be interrupted by one or more O, N and/or S atoms. It is preferred the alkyl group comprises an ω-CH3 group, or in other words starting from the nitrogen (N) in formula I the longest alkyl group preferably ends with a CH3.

[9] = tested on: extended β-lactamase (ESBL) producing Klebsiella pneumoniae LUH5344; assay: Growth inhibition (MIC) of ESBL producing K. pneumoniae LUH5344; details: K. pneumoniae LUH5344, 100% LB
[10] = tested on: ceftazidime-resistant P. aeruginosa clinical isolate PA 24-7-3; assay: Growth inhibition (MIC) of ceftazidime-resistant P. aeruginosa PA 24-7-3; details: Pseudomonas aeruginosa, PA 24-7-3, 20% LB
[11] = PA01, 20% LB, 20 h, sensitizer alone

Compound: CC1(C)S[C@@H]2[C@H](NC(=O)[C@H](N)c3ccccc3)C(=O)N2[C@H]1C(=O)O [ampicillin]
- MIC ([1]; read-out: MIC ampicillin): > 200 µg/mL
- Susceptibility of the isolate to treatment [2]: resistant
- MIC ([3]; read-out: MIC ampicillin): > 200 µg/mL
- MIC ([4]; read-out: MIC ampicillin): > 200 µg/mL
- MIC ([5]; read-out: MIC ampicillin): > 200 µg/mL
- MIC of antibiotic alone ([6]; PA01, 20% LB, 20 h): MIC >200 μg/mL
- MIC of antibiotic [6]: >200 µg/mL
- MIC ([7]; read-out: MIC ampicillin): > 200 µg/mL

Compound: CCCCN [butylamine]
- Sensitizer effect [8]: no effect

Compound: CC(C)(O/N=C(\C(=O)N[C@@H]1C(=O)N2C(C(=O)[O-])=C(C[n+]3ccccc3)CS[C@H]12)c1csc(N)n1)C(=O)O [ceftazidime]
- MIC ([9]; read-out: MIC ceftazidime): 6.25 µg/mL
- MIC ([10]; read-out: MIC ceftazidime): 6.25 µg/mL

Compound: CC(C)c1ccc2c(c1)CC[C@H]1[C@](C)(CN)CCC[C@]21C [dehydroabietylamine]
- MIC of sensitizer alone [6, 11]: MIC at ≧20 μM

Compound: CCCCCCN [hexylamine]
- Sensitizer effect [8]: no effect

Compound: CC(=O)NC[C@H]1CN(c2ccc(N3CCOCC3)c(F)c2)C(=O)O1 [linezolid]
- MIC of antibiotic alone ([6]; PA01, 20% LB, 20 h): MIC >200 ug/mL μg/mL

Compound: CCn1cc(C(=O)O)c(=O)c2ccc(C)nc21 [nalidixic acid]
- MIC of antibiotic [6]: 25 µg/mL

Compound: CCCCCCCC/C=C\CCCCCCCCN [oleylamine]
- MIC ([1]; read-out: MIC oleylamine): > 40 µM
- oleylamine bactericidal concentration ([2]; A. baumannii LUH5771, oleylamine alone): at ≧5 μM
- Susceptibility of the isolate to treatment [2]: resistant
- MIC ([3]; read-out: MIC oleylamine): > 40 µM
- MIC ([4]; read-out: MIC oleylamine): ≥ 40 µM
- MIC ([5]; read-out: MIC oleylamine): ≥ 40 µM
- MIC [6, 11]: ≥ 20 µM
- MIC ([7]; read-out: MIC oleylamine): > 40 µM
- MIC ([9]; read-out: MIC oleylamine): ≥ 40 µM
- MIC ([10]; read-out: MIC oleylamine): ≥ 20 µM

Compound: CCCCCN [pentylamine]
- Sensitizer effect [8]: no effect

Compound: CCCCCCCCCCCCCCCCCCN [stearylamine]
- MIC [6, 11]: ≥ 20 µM

Compound: CC/C(=C(\c1ccccc1)c1ccc(OCCN(C)C)cc1)c1ccccc1 [tamoxifen]
- MIC [6, 11]: ≥ 20 µM

Compound: gentamicin
- MIC gentamicin ([2]; A. baumannii LUH5771, gentamicin alone): >200 µg·mL
- Susceptibility of the isolate to treatment [2]: resistant
